{"source": "patent US20130216590A1", "about": "“TOPICAL ANTIVIRAL FORMULATIONS FOR PREVENTION OF TRANSMISSION OF HSV-2” (priority 2010, published 2013)", "key": {"HSV-1 and HSV-2": {"system": "HSV-1 and HSV-2", "experiment": "HSV cytopathic effect (CPE) reduction assay, laboratory strains, HEL cell monolayers and PHKs", "type": "cell-based, herpes simplex virus", "conditions": "HEL, read-out: EC50, inhibition of virus-induced cytopathicity"}, "[1]": {"system": "HSV-1 wt clinical isolates", "experiment": "HSV CPE reduction assay, clinical isolates in HEL fibroblast cell cultures", "type": "cell-based", "conditions": "Human alphaherpesvirus 1, Fibroblast"}, "[2]": {"system": "HSV-2 wt clinical isolates", "experiment": "HSV CPE reduction assay, clinical isolates in HEL fibroblast cell cultures", "type": "cell-based", "conditions": "Human alphaherpesvirus 2, Fibroblast"}, "[3]": {"system": "thymidine kinase-deficient HSV-2 clinical isolates", "experiment": "microbe, parasite or virus in culture", "type": "cell-based", "conditions": "Human alphaherpesvirus 2, Fibroblast"}, "HSV-2 (G) [4]": {"system": "HSV-2 (G)", "experiment": "Co-infection of TZM-bl cells with HIV-1 and HSV-2: HSV-2-induced cytopathicity", "type": "cell-based", "conditions": "TZM-bl cultures co-infected with HIV-1(NL4.3) and HSV-2(G)", "procedure": "The TZM-bl cell line is derived from HeLa cells and expresses high levels of CD4, CCR5 and CXCR4. In addition, this cell line is stably transduced with a LTR-driven firefly luciferase and E. coli-galactosidase gene (15). In a 96-well tray, 10,000 TZM-bl cells were seeded on day 1. […] Next, 100 μl of a virus suspension containing either HIV-1 (NL4.3), HSV-2 (G) or both viruses together was administered. Two to three days post infection, HIV-1 infection was monitored based on the determination of luciferase activity. For this means, 100 μl of culture supernatant was removed and 100 μl of Bright-Glo Luciferase Assay Substrate (Promega, Madison, USA) was added. The luminescence signal was measured using the Safire 2 microtiter plate reader (Tecan, Männedorf, Switzerland). A control condition containing only mock-infected cells was also included to measure the background luminescence levels. Three days post infection, HSV-2-induced cytopathicity was recorded microscopically based on giant cell formation."}, "HSV-2 (G) [5]": {"system": "HSV-2 (G)", "experiment": "Organotypic epithelial raft cultures infected with HSV-2", "type": "cell-based", "procedure": "(§1) For the preparation of epidermal equivalents, a collagen matrix solution was made with collagen mixed on ice with 10-fold concentrated HAM's F12 media, 10-fold reconstitution buffer and Swiss 3T3 J2 fibroblasts. One milliliter of the collagen matrix solution was poured into the wells of 24-well microtiter plates. After gel equilibration with 1 ml of growth medium overnight at 37° C., 2.5×10^5 PHK cells were seeded on the top of the gels and maintained submerged for 24-48 hours. The collagen rafts were raised and placed onto stainless-steel grids at the interface between air and liquid culture medium. The growth medium was a mixture of ⅓ HAM F12 and ⅔ Dulbecco's modified Eagle's medium, with the same supplements as used for the Keratinocyte-SFM. Epithelial cells were allowed to stratify, the medium being replaced every 2-3 days. For the evaluation of the antiviral effects of the compounds in the raft system, two series of rafts were run in parallel, one for histological examination and the other one for quantification of viral production by a plaque reduction assay. Rafts were infected with 5,000 PFU of HSV-1 (KOS) or […] strains after 10 days post-lifting and then the medium was replaced by medium containing different dilutions of the compounds. The growth medium containing the different concentrations of the compounds was changed two days later and 3 days later (after 15 days of differentiation), one series of rafts was fixed in 10% buffered formalin, embedded in paraffin and stained with hematoxylin and eosin for histological evaluation. Another series of rafts was used to quantify virus production. For that purpose, each raft was frozen in 3 ml phosphate buffer saline (PBS) and thawed to release the virus from the infected epithelium. Supernatants were clarified by centrifugation at 1,800 rpm and titrated by a plaque assay in HEL cell cultures. Virus production in each raft was then calculated. Two rafts were used for each drug concentration to determine the effects of the compounds on virus yield."}, "HSV-1 (KOS)": {"system": "HSV-1 (KOS)", "experiment": "Organotypic epithelial raft cultures infected with HSV-1", "type": "cell-based", "procedure": "as §1"}, "[6]": {"system": "organotypic raft cultures of keratinocytes", "experiment": "Toxic effects in organotypic epithelial raft cultures", "type": "cell-based", "conditions": "highest concentration, 200 μg/ml", "procedure": "as §1"}, "HSV-1 strain F (HSV-1F)": {"system": "HSV-1 strain F (HSV-1F)", "experiment": "Human ex vivo tonsillar tissue, HSV DNA release by real-time PCR", "type": "cell-based", "conditions": "Human alphaherpesvirus 1, read-out: EC50, suppression of replication"}, "HSV-2 strain G (HSV-2G)": {"system": "HSV-2 strain G (HSV-2G)", "experiment": "Human ex vivo tonsillar tissue, HSV DNA release by real-time PCR", "type": "cell-based", "procedure": "(§2) For each experimental condition 16 tissue blocks were immersed in 500 μl of a HSV-2 (strain G) suspension for 2 hours at 37° C., washed three times with PBS and then placed on the gelfoam rafts. Tenofovir was added during the infection and replenished at each culture medium change. Herpes simplex viral replication was evaluated by the release of viral DNA into the culture medium as measured by quantitative real-time PCR (17). HIV-1 replication was evaluated by the release of p24 capsid antigen using a bead-based assay (18)."}, "HSV-2G": {"system": "HSV-2G", "experiment": "Human ex vivo tonsillar tissue coinfected with HSV-2G and HIV-1: HSV-2G DNA release", "type": "cell-based", "conditions": "66 μg/ml, coinfected with HIV-1", "procedure": "as §2"}, "HSV-2 (G strain)": {"system": "HSV-2 (G strain)", "experiment": "In vivo antiviral activity in HSV-2-infected NMRI athymic nude mice", "procedure": "Adult NMRI athymic nude mice (weighing ˜20 g) were scarified on the lumbosacral area over a surface of about 1 cm^2. Mice were inoculated with 5×10^3 PFU of HSV-1 (Kos strain) or 5×10^2 of HSV-2 (G strain) in 50 μL per mouse. […] In each experiment, a group of animals treated with a placebo formulation that was the same as the test formulation without drug was included as a negative control. […] The day of virus inoculation was always considered as day 0. All animal procedures were approved by the K.U. Leuven Animal Care Committee. Development of lesions and mortality were recorded over a one month period. Animals were euthanized when more than 30% loss in body weight or development of paralysis occurred. Survival rates were estimated according to the Kaplan-Meir method and were compared using the log-rank test (Mantel-Cox) test (GraphPad Prism)."}, "HIV-1": {"system": "HIV-1", "conditions": "cited from earlier work"}}, "note": "Read-outs that look alike come from different tables or passages of the source.", "data": [{"molecule": "C[C@H](Cn1cnc2c(N)ncnc21)OCP(=O)(O)O", "note": "[tenofovir, (R)-9-(2-phosphonylmethoxypropyl)adenine]", "values": [{"measurement": "EC50", "setting": "HSV-1 and HSV-2", "result": "100 to 200", "unit": "mg/L"}, {"measurement": "EC50", "setting": "[1]; read-out: mean EC50", "result": 130, "unit": "mg/L"}, {"measurement": "EC50", "setting": "[1]; read-out: range of EC50", "result": "114 to 160", "unit": "mg/L"}, {"measurement": "EC50", "setting": "[2]; read-out: mean EC50", "result": "≥ 157", "unit": "mg/L"}, {"measurement": "EC50", "setting": "[2]; read-out: range of EC50", "result": "≥ 125", "unit": "mg/L"}, {"measurement": "EC50", "setting": "[3]; read-out: mean EC50", "result": 152, "unit": "mg/L"}, {"measurement": "EC50", "setting": "[3]; read-out: range of EC50", "result": "131 to 179", "unit": "mg/L"}, {"measurement": "drug concentration that prevented HSV-2 infection", "setting": "HSV-2 (G) [4]", "result": "~60", "unit": "µg/mL"}, {"measurement": "protection of the epithelium against HSV-2-induced cytopathicity (morphological analysis)", "setting": "HSV-2 (G) [5]; 2 μg/ml", "result": "inactive"}, {"measurement": "protection of the epithelium against HSV-2-induced cytopathicity (morphological analysis)", "setting": "HSV-2 (G) [5]; 20 μg/ml and 5 μg/ml", "result": "partially protective"}, {"measurement": "protection of the epithelium against HSV-2-induced cytopathicity (morphological analysis)", "setting": "HSV-2 (G) [5]; 200 μg/ml and 50 μg/ml", "result": "protected the entire epithelium"}, {"measurement": "reduction in virus production", "setting": "HSV-2 (G) [5]; HSV-2, 20 μg/ml", "result": 0.9, "unit": "log"}, {"measurement": "reduction in virus yield", "setting": "HSV-2 (G) [5]; HSV-2, 50 μg/ml", "result": 1.75, "unit": "logs"}, {"measurement": "log reduction in virus production (PFU) per raft", "setting": "HSV-2 (G) [5]; HSV-2, 200 μg/ml", "result": 5.4, "unit": "log"}, {"measurement": "reduction of virus replication in the rafts", "setting": "HSV-2 (G) [5]; lower concentrations (below 20 μg/ml)", "result": "unable to reduce virus replication"}, {"measurement": "protection of the epithelium from HSV-1-induced cytopathic effect", "setting": "HSV-1 (KOS); 20 μg/ml", "result": "full destruction"}, {"measurement": "protection of the epithelium from HSV-1-induced cytopathic effect", "setting": "HSV-1 (KOS); 50 μg/ml", "result": "partial protection"}, {"measurement": "reduction in virus yield", "setting": "HSV-1 (KOS); HSV-1, 50 μg/ml", "result": 0.81, "unit": "logs"}, {"measurement": "log reduction in virus production (PFU) per raft", "setting": "HSV-1 (KOS); HSV-1, 200 μg/ml", "result": 2.6, "unit": "log"}, {"measurement": "concentration giving complete protection from virus-induced cytopathic effect", "setting": "HSV-1 (KOS); reference HSV-1 laboratory strain", "result": 200, "unit": "µg/mL"}, {"measurement": "toxic effects (increase in number of dead cells or alteration of differentiation)", "setting": "[6]", "result": "No toxic effects"}, {"measurement": "EC50", "setting": "HSV-1 strain F (HSV-1F)", "result": 7, "unit": "mg/L"}, {"measurement": "reduction of replication compared to infected donor matched-untreated tissue", "setting": "HSV-2 strain G (HSV-2G); 66 μg/ml, HSV-2G", "result": "94±7", "unit": "%"}, {"measurement": "release of viral DNA in culture medium", "setting": "HSV-2 strain G (HSV-2G); 66 μg/ml, day 9 post infection, IQR 3.6-6.1, untreated 7.6", "result": 5.2, "unit": "log10 DNA copies/ml"}, {"measurement": "EC50", "setting": "HSV-2 strain G (HSV-2G); Human alphaherpesvirus 2, read-out: EC50, suppression of replication", "result": 14, "unit": "mg/L"}, {"measurement": "HSV-2G DNA release into culture medium", "setting": "HSV-2G; IQR 4.3-5.7, untreated 7.3", "result": 5, "unit": "log10 copies/ml"}, {"measurement": "suppression of HSV-2G replication", "setting": "HSV-2G; n=6", "result": "96±1", "unit": "%"}, {"measurement": "survival curves and morbidity curves versus the placebo group", "setting": "HSV-2 (G strain); DMSO formulation, starting the day of infection", "result": "statistically significant difference"}, {"measurement": "appearance of lesions and subsequent death", "setting": "HSV-2 (G strain); formulated in the gel at 1%", "result": "delayed the appearance of herpes virus-related lesions and subsequent death"}, {"measurement": "reduction of HIV-1 transmission", "setting": "HIV-1; 1% gel, women with high adherence", "result": 54, "unit": "%"}, {"measurement": "overall decrease in the frequency of the sexual transmission of HIV-1", "setting": "HIV-1; formulated as a 1% gel, approximately 900 African women", "result": 39, "unit": "%"}]}]}
